Earlier results on 7 compounds are cited in patent publication US20250223207A1, “COMPOSITIONS OF SUPPORTED METAL CATALYSTS AND METHODS THEREOF” (THE TEXAS A&M UNIVERSITY SYSTEM, priority 2024, published 2025).

The conditions of the first data set: human bodies, oral.
As for `COc1cc(Cc2cnc(N)nc2N)cc(OC)c1OC` [TMP, Trimethoprim], the “Fraction of orally taken dose metabolized” value is reported as 22.5%.

For the next data set the following is noted: PFAS compounds, Table 7.
As a reminder, the pKa is the negative logarithm of the acid dissociation constant. Consider `O=S(=O)(O)C(F)(F)C(F)(F)C(F)(F)C(F)(F)C(F)(F)C(F)(F)C(F)(F)C(F)(F)F` [PFOS, perfluoro octane sulfonic acid], for which the pKa result is given as “=<1.0”. Turning to `O=C(O)C(F)(F)C(F)(F)C(F)(F)C(F)(F)C(F)(F)C(F)(F)C(F)(F)F` [PFOA, perfluorooctanoic acid], the pKa is recorded as 1.30. As for `O=S(=O)(O)C(F)(F)C(F)(F)C(F)(F)C(F)(F)F` [PFBS, perfluorobutane sulfonic acid], the pKa was −3.31.

Take `O=C(O)C(F)(OC(F)(F)C(F)(F)C(F)(F)F)C(F)(F)F` (stereo not shown) [HFPO-DA, hexafluoropropylene oxide dimer acid]: the pKa is 2.84. Turning to `O=C(O)C(F)(F)C(F)(F)C(F)(F)C(F)(F)C(F)(F)C(F)(F)C(F)(F)C(F)(F)F` [PFNA, perfluorononanoic acid], the pKa is listed as −0.21. Turning to `O=S(=O)(O)C(F)(F)C(F)(F)C(F)(F)C(F)(F)C(F)(F)C(F)(F)F` [PFHxS, perfluorohexanesulfonic acid], the pKa is −3.32.
